Reference: patent US7612064B2, “Sulfopyrroles” (Takeda Pharmaceutical Company Limited, priority 2003, dated 2009)
Blank lines part the entries; values can stand above or below the compound they belong to.

Key:
Jurkat [1] = assay: MTS proliferation assay; assay type: cell-based, human; conditions: 72 h
How it was run: (§1)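 Absorbance at 492 nm after a 3 h MTS incubation reports viable cell number. Before that, compounds at 10 μM, 3 μM, 1 μM and 0.3 μM final stay on the cells for 72 h at culture conditions.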

HeLa [2] = assay: MTS proliferation assay; assay type: cell-based, human; conditions: 72 h
How it was run: as §1

Jurkat [3] = assay: PI staining for cell cycle distribution; assay type: cell-based, human; set-up: key: 0: no effect; 1: weak effect; 2: strong effect; conditions: Jurkat 3μM, 48 h
Protocol: (§2) 1-2*10^5 cells are seeded into 24 well tissue culture plates and incubated for 24 h prior to compound addition. […] Adherent cells are harvested by trypsinization. The cell suspensions are fixed by adding 2 parts ice cold ethanol 100% while vortexing. Then the samples are stored for>2 h at −20° C. Subsequently the cells are washed with PBS once and resuspended in 250 μl PBS containing 50 μg/ml PI (Calbiochem # 537059), then the samples are incubated at 37° C. for 30 min and subsequently analyzed on a FACSCalibur™ monitoring linear PI fluorescence activity on FL2. The readout allows the detection of a possible direct or indirect influence of the tested compounds on the cell cycle. The following events can occur: a) Generation of a subG1 peak indicative for DNA fragmentation, b) increase of the cell population arrested in G2M phase. Both events are scored by 1 for weak and 2 for strong occurrence. 0 indicates no occurrence at all.

HeLa [4] = assay: PI staining for cell cycle distribution; assay type: cell-based, human; set-up: key: 0: no effect; 1: weak effect; 2: strong effect; conditions: HeLa 10μM, 48 h
Protocol: as §2

Jily = assay: MTS proliferation assay; assay type: cell-based; conditions: 72 h
How it was run: as §1

MRC5 = assay: MTS proliferation assay; assay type: cell-based; conditions: MRC5, 72 h
How it was run: as §1

[5] = Hoechst 33342 nuclear staining; assay type: cell-based; conditions: 24 h or 48 h incubation; for Hoechst 33342 nuclear staining score, H460: H460 cells; for Hoechst 33342 nuclear staining score, HeLa: HeLa cells; for Hoechst 33342 nuclear staining score, Jily: Jily cells; for Hoechst 33342 nuclear staining score, Jurkat: Jurkat cells; for Hoechst 33342 nuclear staining score, MRC5: MRC5 cells;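 on all read-outs here: apoptotic nuclei scored 0 none 1 weak under 50% of cells 2 strong over 50% of cells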
How it was run: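 Cells were plated in 96 well tissue culture plates in 80 μl complete medium, with 3-5*10^3 cells per well for adherent lines and 8-10*10^3 for suspension lines. Adherent cells spread for 24 h before treatment, while suspension cells were treated right after seeding. Compounds were added in 20 μl complete medium containing max 5% DMSO.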

[6] = conc 0.1 (final concentrations in μM)
[7] = conc 0.3 (final concentrations in μM)
[8] = conc 1 (final concentrations in μM)
[9] = conc 3 (final concentrations in μM)

IC50 (Jurkat [1]): < 1000 nM
IC50 (HeLa [2]): < 1000 nM
Compound: Cc1ccc(S(=O)(=O)n2cc(-c3ccc(S(N)(=O)=O)cc3)cc2-c2ccc3c(c2)OCO3)cc1 [Example 51]
PI staining for cell cycle distribution, G2M (Jurkat [3]): 1
PI staining for cell cycle distribution, subG1 (Jurkat [3]): 0
PI staining for cell cycle distribution, G2M (HeLa [4]): 2
PI staining for cell cycle distribution, subG1 (HeLa [4]): 0
IC50 (Jily): < 1000 nM
IC50 (MRC5): < 1000 nM
Hoechst 33342 nuclear staining score, H460 [5, 6]: 0
Hoechst 33342 nuclear staining score, H460 [5, 7]: 0
Hoechst 33342 nuclear staining score, H460 [5, 8]: 2 (strong activity comprising more than 50% of the cells)
Hoechst 33342 nuclear staining score, H460 [5, 9]: 2 (strong activity comprising more than 50% of the cells)
Hoechst 33342 nuclear staining score, HeLa [5, 6]: 0
Hoechst 33342 nuclear staining score, HeLa [5, 7]: 0
Hoechst 33342 nuclear staining score, HeLa [5, 8]: 2 (strong activity comprising more than 50% of the cells)
Hoechst 33342 nuclear staining score, HeLa [5, 9]: 2 (strong activity comprising more than 50% of the cells)
Hoechst 33342 nuclear staining score, Jily [5, 6]: 0
Hoechst 33342 nuclear staining score, Jily [5, 7]: 0
Hoechst 33342 nuclear staining score, Jily [5, 8]: 2 (strong activity comprising more than 50% of the cells)
Hoechst 33342 nuclear staining score, Jily [5, 9]: 2 (strong activity comprising more than 50% of the cells)
Hoechst 33342 nuclear staining score, Jurkat [5, 6]: 0
Hoechst 33342 nuclear staining score, Jurkat [5, 7]: 0
Hoechst 33342 nuclear staining score, Jurkat [5, 8]: 2 (strong activity comprising more than 50% of the cells)
Hoechst 33342 nuclear staining score, Jurkat [5, 9]: 2 (strong activity comprising more than 50% of the cells)
Hoechst 33342 nuclear staining score, MRC5 [5, 6]: 0
Hoechst 33342 nuclear staining score, MRC5 [5, 7]: 0
Hoechst 33342 nuclear staining score, MRC5 [5, 8]: 1 (weak activity comprising less than 50% of the cells)
Hoechst 33342 nuclear staining score, MRC5 [5, 9]: 1 (weak activity comprising less than 50% of the cells)
Hoechst 33342 nuclear staining score, PBLs [5, 6]: 0
Hoechst 33342 nuclear staining score, PBLs [5, 7]: 0
Hoechst 33342 nuclear staining score, PBLs [5, 8]: 0
Hoechst 33342 nuclear staining score, PBLs [5, 9]: 0

IC50 (Jurkat [1]): < 200 nM
IC50 (HeLa [2]): < 1000 nM
Compound: COc1cc(-c2cc(-c3cncc(C(N)=O)c3)cn2S(=O)(=O)c2ccc(C)cc2)cc(OC)c1OC [Example 56]
PI staining for cell cycle distribution, G2M (Jurkat [3]): 1
PI staining for cell cycle distribution, subG1 (Jurkat [3]): 0
PI staining for cell cycle distribution, G2M (HeLa [4]): 2
PI staining for cell cycle distribution, subG1 (HeLa [4]): 0
IC50 (Jily): < 1000 nM
IC50 (MRC5): < 1000 nM
Hoechst 33342 nuclear staining score, H460 [5, 6]: 0
Hoechst 33342 nuclear staining score, H460 [5, 7]: 2 (strong activity comprising more than 50% of the cells)
Hoechst 33342 nuclear staining score, H460 [5, 8]: 2 (strong activity comprising more than 50% of the cells)
Hoechst 33342 nuclear staining score, H460 [5, 9]: 2 (strong activity comprising more than 50% of the cells)
Hoechst 33342 nuclear staining score, HeLa [5, 6]: 0
Hoechst 33342 nuclear staining score, HeLa [5, 7]: 0
Hoechst 33342 nuclear staining score, HeLa [5, 8]: 2 (strong activity comprising more than 50% of the cells)
Hoechst 33342 nuclear staining score, HeLa [5, 9]: 2 (strong activity comprising more than 50% of the cells)
Hoechst 33342 nuclear staining score, Jily [5, 6]: 0
Hoechst 33342 nuclear staining score, Jily [5, 7]: 2 (strong activity comprising more than 50% of the cells)
Hoechst 33342 nuclear staining score, Jily [5, 8]: 2 (strong activity comprising more than 50% of the cells)
Hoechst 33342 nuclear staining score, Jily [5, 9]: 2 (strong activity comprising more than 50% of the cells)
Hoechst 33342 nuclear staining score, Jurkat [5, 6]: 0
Hoechst 33342 nuclear staining score, Jurkat [5, 7]: 2 (strong activity comprising more than 50% of the cells)
Hoechst 33342 nuclear staining score, Jurkat [5, 8]: 2 (strong activity comprising more than 50% of the cells)
Hoechst 33342 nuclear staining score, Jurkat [5, 9]: 2 (strong activity comprising more than 50% of the cells)
Hoechst 33342 nuclear staining score, MRC5 [5, 6]: 0
Hoechst 33342 nuclear staining score, MRC5 [5, 7]: 2 (strong activity comprising more than 50% of the cells)
Hoechst 33342 nuclear staining score, MRC5 [5, 8]: 2 (strong activity comprising more than 50% of the cells)
Hoechst 33342 nuclear staining score, MRC5 [5, 9]: 2 (strong activity comprising more than 50% of the cells)
Hoechst 33342 nuclear staining score, PBLs [5, 6]: 0
Hoechst 33342 nuclear staining score, PBLs [5, 7]: 0
Hoechst 33342 nuclear staining score, PBLs [5, 8]: 0
Hoechst 33342 nuclear staining score, PBLs [5, 9]: 0
